A value given as a limit tells only on which side of the number the result lay.

The term melting point denotes the temperature of the solid-liquid transition. In turn, `CC(C)c1sc2ncnc(N)c2c1-c1ccc(NC(=O)c2ccccc2)cc1` [Example 8, N-[4-(4-amino-6-isopropylthieno[2,3-d]pyrimidin-5-yl)phenyl]benzamide] displayed a melting point of more than 250 °C.
As for `Cc1ccc(NC(=O)Nc2ccc(-c3c(Cc4ccccc4)sc4ncnc(N)c34)cc2)cc1` [Example 9, N-[4-(4-amino-6-benzylthieno[2,3-d]pyrimidin-5-yl)phenyl]-N′-(4-methylphenyl)urea], the melting point lay within 169 to 173 °C.
`Nc1ncnc2sc(Cc3ccccc3)c(-c3ccc(NS(=O)(=O)c4ccccc4)cc3)c12` [Example 13, N-[4-(4-amino-6-benzylthieno[2,3-d]pyrimidin-5-yl)phenyl]benzenesulfonamide] displayed a melting point of 100 to 105 °C.
Compound `Cc1ccccc1NC(=O)Nc1ccc(-c2c(CCO)sc3ncnc(N)c23)cc1` [Example 107, N-{4-[4-amino-6-(2-hydroxyethyl)thieno[2,3-d]pyrimidin-5-yl]phenyl}-N′-(2-methylphenyl)urea] displayed a melting point of 159 to 162 °C.
Regarding `COCCc1sc2ncnc(N)c2c1-c1ccc(NC(=O)Nc2ccc(C)cc2)cc1` [Example 110, N-{4-[4-amino-6-(2-methoxyethyl)thieno[2,3-d]pyrimidin-5-yl]phenyl}-N′-(4-methylphenyl)urea], the melting point lay within 128 to 132 °C.
With `COCCc1sc2ncnc(N)c2c1-c1ccc(NS(=O)(=O)c2ccccc2)cc1` [Example 111, N-{4-[4-amino-6-(2-methoxyethyl)thieno[2,3-d]pyrimidin-5-yl]phenyl}benzenesulfonamide], the melting point was 206 to 208 °C.
As for `COCCc1sc2ncnc(N)c2c1-c1ccc(NC(=O)Cc2cccc(C)c2)cc1` [Example 112, N-{4-[4-amino-6-(2-methoxyethyl)thieno[2,3-d]pyrimidin-5-yl]phenyl}-2-(3-methylphenyl)acetamide], the melting point was 200 to 202 °C.
For `COCCc1sc2ncnc(N)c2c1-c1ccc(NC(=O)c2ccccc2)cc1` [Example 113, N-{4-[4-amino-6-(2-methoxyethyl)thieno[2,3-d]pyrimidin-5-yl]phenyl}benzamide], the melting point fell in the range of 200 to 202 °C.
With `Nc1ncnc2sc(Cc3cccnc3)c(-c3ccc(NC(=O)Nc4cccc(Cl)c4)cc3)c12` [Example 117, N-{4-[4-amino-6-(pyridin-3-ylmethyl)thieno[2,3-d]pyrimidin-5-yl]phenyl}-N′-(3-chlorophenyl)urea], the melting point is 169 to 172 °C.
As to `COCCc1sc2ncnc(N)c2c1-c1ccc(N(C(N)=O)c2ccccc2C)cc1` [Example 137, N-{4-[4-amino-6-(2-methoxyethyl)thieno[2,3-d]pyrimidin-5-yl]phenyl}-N-(2-methylphenyl)urea], the melting point lay within 217 to 219 °C.
`NC(=O)N(c1ccc(-c2c(CCO)sc3ncnc(N)c23)cc1)c1cccc(C(F)(F)F)c1` [Example 139, N-{4-[4-amino-6-(2-hydroxyethyl)thieno[2,3-d]pyrimidin-5-yl]phenyl}-N-[3-(trifluoromethyl)phenyl]urea] displayed a melting point of 155 to 158 °C.
Then `COCCc1sc2ncnc(N)c2c1-c1ccc(NC(=O)Nc2cc(C(F)(F)F)ccc2F)cc1` [Example 140, N-{4-[4-amino-6-(2-methoxyethyl)thieno[2,3-d]pyrimidin-5-yl]phenyl}-N′-[2-fluoro-5-(trifluoromethyl)phenyl]urea], with 209 to 211 °C; and `Nc1ncnc2sc(Cc3ccncc3)c(-c3ccc(NC(=O)Nc4cccc(C(F)(F)F)c4)cc3)c12` [Example 142, N-{4-[4-amino-6-(pyridin-4-ylmethyl)thieno[2,3-d]pyrimidin-5-yl]phenyl}-N′-[3-(trifluoromethyl)phenyl]urea], with 162 to 166 °C; and `Cc1cccc(CC(=O)Nc2ccc(-c3c(CCO)sc4ncnc(N)c34)cc2)c1` [Example 350, N-{4-[4-amino-6-(2-hydroxyethyl)thieno[2,3-d]pyrimidin-5-yl]phenyl}-2-(3-methylphenyl)acetamide], with 142 to 144 °C.

The record behind these values is patent publication US20030225273A1, “Thiopyrimidine and isothiazolopyrimidine kinase inhibitors” (priority 2002, published 2003).
